From patent US20130281494A1, “POLYMORPHS OF N-(6-(4-CHLOROPHENOXY)HEXYL)-N'-CYANO-N"-(4-PYRIDYL)GUANIDINE, AND PREPARATION THEREOF AND USE THEREOF” (Tianjin Michele Sci-Tech Development Co., Ltd., priority 2010, published 2013)

Tests used:
[1] = system: human lung cancer tumor xenograft; details: cited from earlier work
[2] = system: human lung cancer and breast cancer cell lines; details: cited from earlier work
human tumor cells = details: nude mouse transplanted with human tumor cells; cited from earlier work
[3] = Stability of polymorphs exposed to the air at room temperature for 12 months, purity by HPLC; type: physicochemical; details: for Original Purity: before exposure; for Purity (after exposed for 12 months): exposed to the air at room temperature for 12 months
Procedure: The obtained purity results thereof were shown s follows.
The purities were measured by using high performance liquid chromatography under the following conditions.
Chromatographic Column. […] ODS (150*4.6 mm, 5μ)
Phase A: 11.5% (v/v) of acetonitrile aqueous solution containing 0.01 mol/L of lauryl sodium sulfate and 0.0125 mol/L of dipotassium hydrogen phosphate (adjusted to pH 2.5 with phosphoric acid)
Column Temperature: 40° C.;
Detection Wavelength: 278 nm;

Compound	antitumor activity in the nude mice model [1]	antiproliferative activity in vitro [2]	antitumor activity in vivo (human tumor cells)	Original Purity [3] [%]	Purity (after exposed for 12 months) [3] [%]
N#C/N=C(\NCCCCCCOc1ccc(Cl)cc1)Nc1ccncc1 [N-(6-(4-chlorophenoxy)hexyl)-N′-cyano-N″-(4-pyridyl)guanidine]	potent antitumor activity	high antiproliferative activity	highly potent antitumor activity	–	–
N#C/N=C(\NCCCCCCOc1ccc(Cl)cc1)Nc1ccncc1 [Polymorph I, N-(6-(4-chlorophenoxy)hexyl)-N′-cyano-N″-(4-pyridyl)guanidine]	–	–	–	98.01	97.49
N#C/N=C(\NCCCCCCOc1ccc(Cl)cc1)Nc1ccncc1 [Polymorph II, N-(6-(4-chlorophenoxy)hexyl)-N′-cyano-N″-(4-pyridyl)guanidine]	–	–	–	99.45	99.36
N#C/N=C(\NCCCCCCOc1ccc(Cl)cc1)Nc1ccncc1 [Polymorph III, N-(6-(4-chlorophenoxy)hexyl)-N′-cyano-N″-(4-pyridyl)guanidine]	–	–	–	97.83	97.56
N#C/N=C(\NCCCCCCOc1ccc(Cl)cc1)Nc1ccncc1 [Polymorph IV, N-(6-(4-chlorophenoxy)hexyl)-N′-cyano-N″-(4-pyridyl)guanidine]	–	–	–	99.59	99.45
N#C/N=C(\NCCCCCCOc1ccc(Cl)cc1)Nc1ccncc1 [Polymorph V, N-(6-(4-chlorophenoxy)hexyl)-N′-cyano-N″-(4-pyridyl)guanidine]	–	–	–	95.82	95.02
N#C/N=C(\NCCCCCCOc1ccc(Cl)cc1)Nc1ccncc1 [Polymorph VI, N-(6-(4-chlorophenoxy)hexyl)-N′-cyano-N″-(4-pyridyl)guanidine]	–	–	–	99.55	99.28
